In publication PMC9120017, “Inhibition mechanism of the chloride channel TMEM16A by the pore blocker 1PBC” (Nature Communications, 2022):
Where two headings read alike, the source gives them in different places.

Molecular target: T1, mouse TMEM16A mutant Q649A (Mus musculus, UniProt Q8BHY3, Q649A)
T1 construct: expressed in transfected cells; host or cells: HEK293T
T1 sequence (Q8BHY3 1-960 Q649A): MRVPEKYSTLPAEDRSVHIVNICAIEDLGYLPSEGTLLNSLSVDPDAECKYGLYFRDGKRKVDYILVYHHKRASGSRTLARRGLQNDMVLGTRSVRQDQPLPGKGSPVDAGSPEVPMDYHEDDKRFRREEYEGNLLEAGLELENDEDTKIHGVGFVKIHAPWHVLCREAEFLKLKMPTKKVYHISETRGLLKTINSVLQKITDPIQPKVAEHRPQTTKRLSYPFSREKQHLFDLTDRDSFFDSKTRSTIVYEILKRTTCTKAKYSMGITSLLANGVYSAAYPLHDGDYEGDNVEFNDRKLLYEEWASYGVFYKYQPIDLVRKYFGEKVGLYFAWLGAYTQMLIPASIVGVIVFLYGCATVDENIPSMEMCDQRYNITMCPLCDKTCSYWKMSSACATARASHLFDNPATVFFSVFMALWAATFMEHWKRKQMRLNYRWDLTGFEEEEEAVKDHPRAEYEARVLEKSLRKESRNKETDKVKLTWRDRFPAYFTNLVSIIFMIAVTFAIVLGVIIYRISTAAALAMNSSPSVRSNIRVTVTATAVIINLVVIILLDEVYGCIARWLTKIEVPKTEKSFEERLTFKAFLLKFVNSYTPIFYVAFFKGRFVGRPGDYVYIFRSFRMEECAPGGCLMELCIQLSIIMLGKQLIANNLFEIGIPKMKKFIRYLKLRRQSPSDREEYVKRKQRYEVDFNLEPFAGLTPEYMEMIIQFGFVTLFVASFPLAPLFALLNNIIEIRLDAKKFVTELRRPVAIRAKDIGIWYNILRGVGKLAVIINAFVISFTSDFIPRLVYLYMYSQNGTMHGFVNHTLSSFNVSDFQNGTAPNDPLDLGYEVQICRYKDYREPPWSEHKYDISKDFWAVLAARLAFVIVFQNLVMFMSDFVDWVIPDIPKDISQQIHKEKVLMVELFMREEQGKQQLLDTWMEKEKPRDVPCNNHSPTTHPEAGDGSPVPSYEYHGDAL
Test: Inside-out patch recording of 1PBC block, constitutively active mutant Q649A
Type: cell-based
Conditions: for remaining activity at 3 µM: 3 µM 1PBC; for remaining activity at 10 µM: 10 µM 1PBC; for remaining activity at 30 µM: 30 µM 1PBC
Method: HEK293T cells (ATCC CRL-1573) were maintained in Dulbecco’s modified Eagle’s medium (DMEM; Sigma-Aldrich) supplemented with 10 U ml^−1 penicillin, 0.1 mg ml^−1 streptomycin (Sigma-Aldrich), 2 mM L-glutamine (Sigma-Aldrich), and 10% FBS (Sigma-Aldrich) in a humidified atmosphere containing 5% CO2 at 37 °C. HEK293S GnTI^− cells (ATCC CRL-3022) were maintained in HyClone HyCell TransFx-H medium (GE Healthcare) supplemented with 10 U ml^−1 penicillin, 0.1 mg ml^−1 streptomycin, 4 mM L-glutamine, 0.15% poloxamer 188 (Sigma-Aldrich), and 1% FBS in an atmosphere containing 5% CO2 at 185 rpm at 37 °C. The ac splice variant of mouse TMEM16A (UniProt ID: Q8BHY3), mouse TMEM16B (UniProt ID: Q8CFW1), or mouse TMEM16F (UniProt ID: Q6P9J9) bearing a 3C cleavage site, a Venus YFP, a Myc tag, and a Streptavidin-binding peptide (SBP) downstream of the open reading frame in a modified pcDNA3.1 vector (Invitrogen) were used as described previously[21],[31]. Mutations were introduced using a modified QuikChange method[58] and were verified by sequencing.
HEK293T cells were transfected with 3–4 μg DNA per 6 cm Petri dish using the calcium phosphate co-precipitation method and were used within 24–96 h after transfection. Recordings were performed on inside-out patches excised from HEK293T cells expressing the construct of interest. Patch pipettes were pulled from borosilicate glass capillaries (O.D. 1.5 mm, I.D. 0.86 mm, Sutter Instrument) and were fire-polished with a microforge (Narishige) before use. Pipette resistance was typically 3–8 MΩ when filled with the recording solutions detailed below. Seal resistance was typically 4 GΩ or higher. Voltage-clamp recordings were made using Axopatch 200B, Digidata 1550, and Clampex 10.7 (Molecular Devices). Analog signals were filtered with the in-built 4-pole Bessel filter at 10 kHz and were digitized at 20 kHz. Solution exchange was achieved using a gravity-fed system through a theta glass pipette mounted on an ultra-fast piezo-driven stepper (Siskiyou). […] All recordings were performed at 20 °C.
A symmetrical ionic condition was used throughout. Stock solution with Ca^2+-EGTA contained 150 mM NaCl, 5.99 mM Ca(OH)2, 5 mM EGTA, and 10 mM HEPES at pH 7.40. Stock solution with EGTA contained 150 mM NaCl, 5 mM EGTA, and 10 mM HEPES at pH 7.40. Free Ca^2+ concentrations were adjusted by mixing the stock solutions at the required ratios calculated using the WEBMAXC program (http://web.stanford.edu/~cpatton/webmaxcS.htm). Patch pipettes were filled with the stock solution with Ca^2+-EGTA, which has a free Ca^2+ concentration of 1 mM. 1PBC (ChemBridge) stock was reconstituted in anhydrous DMSO (Sigma-Aldrich) at 100 mM and stored at −20 °C. Working solutions with 1PBC were prepared by serial dilution. Unless otherwise stated, experiments were performed at a saturating Ca^2+ concentration as shown in Supplementary Table 1 and the primary data were corrected for current rundown as described previously[21],[25].
Concentration-response relations, obtained from the ratio of the I-V plots before and after the application of the blocker, were fitted to the Hill equation,1 I/Imax=1/1+IC50/[blocker]^h where I/Imax is the normalized current responses, IC50 defines the concentration at which inhibition is at its half-maximum, and h is the Hill coefficient.

[1] = 0 mV, 2 µM Ca2+, read-out: I/Imax
[2] = 0 mV, zero Ca2+, read-out: I/Imax

N#Cc1c(C(F)(F)F)cc(O)n2c1nc1ccccc12 [1PBC]
I/Imax_+80mV (0Ca, 3 μM 1PBC): 0.8995 | I/Imax_-80mV (0Ca, 3 μM 1PBC): 0.9942 | I/Imax_+80mV (0Ca, 10 μM 1PBC): 0.7384 | I/Imax_-80mV (0Ca, 10 μM 1PBC): 0.9446 | I/Imax_+80mV (0Ca, 30 μM 1PBC): 0.483 | I/Imax_-80mV (0Ca, 30 μM 1PBC): 0.815 | I/Imax_+80mV (0Ca, 100 μM 1PBC): 0.2577 | I/Imax_-80mV (0Ca, 100 μM 1PBC): 0.578 | remaining activity at 1 µM (1 µM 1PBC, 0 mV, 2 µM Ca2+, read-out: I/Imax): 80% | remaining activity at 3 µM [1]: 57.9% | remaining activity at 3 µM [2]: 92.9% | remaining activity at 10 µM [1]: 31.4% | remaining activity at 10 µM [2]: 84.7% | remaining activity at 30 µM [1]: 13.7% | remaining activity at 30 µM [2]: 63.9% | remaining activity at 100 µM (100 µM 1PBC, 0 mV, zero Ca2+, read-out: I/Imax): 39.9% | I/Imax_+80mV (Ca, 1 μM 1PBC): 0.7635 | I/Imax_-80mV (Ca, 1 μM 1PBC): 0.9086 | I/Imax_+80mV (Ca, 3 μM 1PBC): 0.5067 | I/Imax_-80mV (Ca, 3 μM 1PBC): 0.7508 | I/Imax_+80mV (Ca, 10 μM 1PBC): 0.2578 | I/Imax_-80mV (Ca, 10 μM 1PBC): 0.4875 | I/Imax_+80mV (Ca, 30 μM 1PBC): 0.09866 | I/Imax_-80mV (Ca, 30 μM 1PBC): 0.2347 | Decrease in potency of block, Ca2+-free form vs Ca2+-bound state (zero vs 2 µM Ca2+): about ten-fold
